Assay results reported in PMC10916623, “Tissue distribution and pharmacokinetics of isoxanthohumol from hops in rodents” (Food Science & Nutrition, 2023).
Where “and” joins values, the source holds several entries; their conditions need not be identical. Equal entries are not always repeated. One block for each molecule: values may come before it.

Assays:
[1] = Plasma pharmacokinetics after single-gavage administration of IXA to mice; assay type: in vivo, C57/BL6 mice; details: single oral IXA 50 mg/kg BW, data not shown
Method: (§1) Six‐week‐old male C57/BL6 mice (initial BW: 19–24 g; Japan SLC, Shizuoka, Japan) were housed in a room maintained at 23–26°C with a 12‐h light–dark cycle. During the 1‐week acclimatization period, they were allowed free access to a commercial diet (Oriental Yeast Co., Tokyo, Japan) and water. Two days before the experiment, they were fed AIN‐93M (Oriental Yeast Co.). Before drug administration, they were fasted for 20 h, but had free access to water. IXA dissolved in 3% hydroxypropyl‐β‐cyclodextrin and 5% ethanol (Fujifilm; Wako Pure Chemical Corp., Osaka, Japan) was named the injection solution and administered (50 mg/kg BW) to mice intragastrically using a gastric feeding tube (AS ONE, Osaka, Japan). Blood, brain, thymus, heart, lung, liver, spleen, pancreas, kidney, and gastrocnemius muscle were collected 0.5, 1, 2, 4, 8, 12, 24, and 48 h after administration. We also set up a control group, and mice in this group were sacrificed just before we started administering IXA at 0 h. At 4 h after administration, mice were allowed free access to AIN‐93 M. Plasma was isolated by centrifugation at 17 × 10^3 m/s^2 (5911, Kubota, Tokyo, Japan) for 5 min at 4°C. All tissues were dissected, weighed, and immediately frozen in liquid nitrogen. All samples were stored at −80°C until analysis.
(§2) Plasma samples were deconjugated by β‐glucuronidase type H‐1 (which has β‐glucuronidase and sulphatase activity; Sigma, St. Louis, MO, USA; G0751) to convert aglycon from conjugated metabolites of IXA and 8‐PN, as described in a previous report (Y. Tanaka et al., [2022]). Briefly, 100 μL of plasma was mixed with 900 μL of 0.1 mol/L sodium acetate buffer (pH 4.7), 200 μL of 50 mmol/L ascorbic acid, and 1 mL of 1.67 μkat/100 μL of β‐glucuronidase type H‐1, and then incubated for 30 min at 37°C. Then, 2.4 nmol of QTM was added to the samples as the internal standard. The liberated aglycone was extracted using ethyl acetate (Kanto Kagaku, 14,029‐2B).
(§3) The plasma and tissue extracts were evaporated using a Centrifugal Evaporator (EYERA, Tokyo, Japan, CVE‐3000). The samples were stored at −80°C until the next day. Then, the samples were dissolved in 120 μL of a mobile phase solution and divided into two test tubes. The first sample was injected into the HPLC with an ultraviolet detection system (Shimadzu, Kyoto, Japan).
(§4) IXA and 8‐PN concentrations were determined by their respective standard curves using an internal standard method. A Cadenza 3‐μm CD‐C18 HPLC column (CD005, 150 × 4.6 mm; Imtakt Corporation, Kyoto, Japan) was equipped for HPLC (λ = 295 nm). The mobile phase consisted of methanol:water:acetic acid (60:35:5, v/v/v). The flow rate was set at 1.0 mL/min. […] Because clear peaks over 4.5 pmol/sample were detected for IXA and 8‐PN by visual evaluation, we determined that these concentrations were the peak limit of detections for each flavonoid. We applied calibration curves in the IXA/QTM concentration ratio range of 0.007–35.1 (R ^2 = .9955).

[2] = Tissue distribution after single-gavage administration of IXA to mice; assay type: in vivo, C57/BL6 mice; details: for 8-PN accumulation, single-ingestion test (at 24 h) / AUC (0–48 h) 8-PN/IXA / C max 8-PN: mice; for 8-PN accumulation, single-ingestion test (at 24 h): single IXA 50 mg/kg BW; for 8-PN accumulation, single-ingestion test (at 24 h) / C max 8-PN: metabolite; for AUC (0–48 h) 8-PN/IXA / C max 8-PN: single oral IXA 50 mg/kg BW
Method: as §1
(§5) Tissue sample deconjugation was performed as described in a previous report with slight modifications (Tanaka et al., [2022]). Tissues were homogenized in phosphate‐buffered saline (pH 7.4), which was nine times the tissue volume. The tissue homogenate was incubated in 50 mmol/L ascorbic acid (one‐fifth the volume of phosphate‐buffered saline) and 1.67 μkat/100 μL of β‐glucuronidase type H‐1 in 0.1 mol/L sodium acetate buffer (pH 4.7, nine times the volume of the sample) for 2 h at 37°C. Then, 2.4 nmol of QTM was added to samples as an internal standard. The supernatant was isolated by centrifugation at 17 × 10^3 m/s^2 (Kubota) for 5 min at 4°C. Then, methanol (Kanto Kagaku, 25183‐2B) was added to the pellets, and they were shaken for 1 min. The methanol layer and pellets were separated by centrifugation at 17 × 10^3 m/s^2 (Kubota, RY1071‐A000) for 5 min at 4°C. Methanol extraction was repeated three times. Finally, methanol extracts were mixed with the supernatant (the composition of the mixture was 30% methanol) and then applied to an Inert Sep C8 (200 mg/3 mL; GL Sciences, Tokyo, Japan; 5010‐61082) cartridge. The cartridge was preconditioned with 6 mL of 2% acetic acid in methanol, and then 9 mL of 2% acetic acid in water. The extracted tissue was passed through the cartridge, and it was washed with 5 mL of 2% acetic acid in 30% methanol aq. The flavonoids were eluted with 10 mL of 2% acetic acid in methanol.
as §3, §4

[3] = Tissue and plasma accumulation after daily gavage administration of IXA to mice for 14 days; assay type: in vivo, C57/BL6 mice; details: IXA 30 mg/kg BW daily 14 days, metabolite, 24 h after final administration
Method: Animal species, age, sex, initial BW, feeding conditions, and dosage method were the same as those for the single gavage administration test, but the dose was 30 mg/kg BW. […] Daily gavage administration without fasting was performed at 12:00 PM for 14 days. The final BW was 21–26 g. Blood, brain, thymus, heart, lung, liver, spleen, kidney, and gastrocnemius muscle were collected 24 h after the final administration. The sample collection method was the same as that for the single gavage administration test.
as §2, §5, §3, §4

[4] = Liver accumulation after intragastric IXA administration at various concentrations to rats for 28 days; assay type: in vivo, Sprague–Dawley rats; details: rat liver
Method: Six‐week‐old female Sprague–Dawley rats (Charles River Laboratories Japan, Inc., Yokohama, Japan) were housed in a room maintained at 20–26°C on a 12‐h light–dark cycle. The initial BW of rats was 176–179 g. They were allowed free access to a commercial diet (CRF‐1) and water during the experiment. IXA dissolved in injection solution was administered intragastrically to rats (112.5, 225, 360, 450, and 1500 mg/kg BW) daily for 28 days using a gastric feeding tube. We also set up a control group to which the injection solution was administered. The final BW of rats was 231–241 g. The liver was collected the day after the last administration. The rats were fasted for 16–24 h before they were euthanized, but they had free access to water. Liver samples were stored at −80°C until analysis.
as §5
The plasma and tissue extracts were evaporated using a Centrifugal Evaporator (EYERA, Tokyo, Japan, CVE‐3000). The samples were stored at −80°C until the next day. Then, the samples were dissolved in 120 μL of a mobile phase solution and divided into two test tubes. […]
IXA and 8‐PN concentrations were determined by their respective standard curves using an internal standard method. […] Because clear peaks over 4.5 pmol/sample were detected for IXA and 8‐PN by visual evaluation, we determined that these concentrations were the peak limit of detections for each flavonoid. […]

- 8-PN in the plasma during the experiment [1]: not observed
- 8-PN accumulation, single-ingestion test (at 24 h) ([2]; liver): 4.6 ± 1.8 nmol/g of tissue
- AUC (0–48 h) 8-PN/IXA ([2]; liver): 26%
- C max 8-PN ([2]; liver, measured at 24 h): 4.6 ± 1.8 nmol/g of tissue
- 8-PN accumulation, single-ingestion test (at 24 h) ([2]; lung): 1.8 ± 0.9 nmol/g of tissue
- AUC (0–48 h) 8-PN/IXA ([2]; lung): 109% and 109.3%
- C max 8-PN ([2]; lung, measured at 2 h): 4.5 ± 2.5 nmol/g of tissue
- AUC (0–48 h) 8-PN/IXA ([2]; pancreas): 1%
- C max 8-PN ([2]; pancreas, measured at 1 h): 0.6 ± 0.5 nmol/g of tissue
- 8-PN accumulation, 14-day repeated-ingestion test ([3]; brain): 0.8 ± 0.7 nmol/g of tissue
- 8-PN accumulation, 14-day repeated-ingestion test ([3]; heart): not detected
- 8-PN accumulation, 14-day repeated-ingestion test ([3]; liver): 2.1 ± 0.4 nmol/g of tissue
- 8-PN accumulation, 14-day repeated-ingestion test ([3]; lung): 3.9 ± 3.5 nmol/g of tissue
- 8-PN accumulation, 14-day repeated-ingestion test ([3]; muscle): 0.1 ± 0.0 nmol/g of tissue
- 8-PN accumulation, 14-day repeated-ingestion test ([3]; plasma): not detected
- 8-PN accumulation, 14-day repeated-ingestion test ([3]; spleen): 0.6 ± 0.6 nmol/g of tissue
- 8-PN accumulation, 14-day repeated-ingestion test ([3]; thymus): 0.6 ± 0.5 nmol/g of tissue
- amount of 8-PN relative to that of IXA (times higher) ([4]; IXA 112.5 mg/kg, 28 days): approximately two
- 8-PN levels compared with those of IXA ([4]; IXA 1500 mg/kg, 28 days): approximately 7.4%
- correlation coefficient between dose-concentration and accumulation ([4]; IXA 112.5–1500 mg/kg BW once a day for 28 days, Pearson): −.255
Molecule: 4,5,7‐trihydroxy‐8‐prenylflavanone [8‐PN]

Molecule: CC(C)=CCc1c(O)cc2c(c1O)C(=O)C[C@@H](c1ccc(O)cc1)O2 [6‐PN, 6‐prenylnaringenin]
- presence of 6-PN in the samples analyzed in this study ([2]; mouse, in vivo): not detected
